According to US7560567B2, “2-pyridinylethylbenzamide derivatives” (Bayer Cropscience S.A., priority 2003, dated 2009):

Columns and labels:
Alternaria brassicae = test: In vivo test on Alternaria brassicae (leaf spot of crucifers), radish plants, preventive spray; conditions: for pest or weed control at 330 ppm: Alternaria brassicae, radish plants (Pernot), treated 24 h before contamination, grading 6 to 7 days after contamination vs control plants, read-out: protection (good, at least 50%, to total); for effectiveness on Alternaria brassicae: 330 ppm, comparison compounds of WO 01/11965
Procedure: (§1) The active ingredient tested is prepared by potter homogenisation in a concentrated suspension type formulation at 100 g/l. This suspension is then diluted with water to obtain the desired active material concentration.
Radish plants (Pernot variety) in starter cups, sown on a 50/50 peat soil-pozzolana substrate and grown at 18-20° C., are treated at the cotyledon stage by spraying with the aqueous suspension described above.
Plants, used as controls, are treated with an aqueous solution not containing the active material.
After 24 hours, the plants are contaminated by spraying them with an aqueous suspension of Alternaria brassicae spores (40,000 spores per cm^3). The spores are collected from a 12-13-day-old culture.
The contaminated radish plants are incubated for 6-7 days at about 18° C., under a humid atmosphere.
Grading is carried out 6 to 7 days after the contamination, in comparison with the control plants.

Pyrenophora teres = test: In vivo test on Pyrenophora teres (barley net blotch), barley plants, preventive spray; conditions: 288 h, barley plants (Express), treated 24 h before contamination, grading 12 days after contamination vs control plants, read-out: protection (good, at least 50%, to total)
Procedure: as §1
(§2) Barley plants (Express variety) in starter cups, sown on a 50/50 peat soil-pozzolana substrate and grown at 12° C., are treated at the 1-leaf stage (10 cm tall) by spraying with the aqueous suspension described above. Plants, used as controls, are treated with an aqueous solution not containing the active material.
After 24 hours, the plants are contaminated by spraying them with an aqueous suspension of Pyrenophora teres spores (12,000 spores per ml). The spores are collected from a 12-day-old culture. The contaminated barley plants are incubated for 24 hours at about 20° C. and at 100% relative humidity, and then for 12 days at 80% relative humidity.
Grading is carried out 12 days after the contamination, in comparison with the control plants.

Botrytis cinerea = test: In vivo test on Botrytis cinerea (gherkin grey mould), gherkin plants, preventive spray; conditions: 330 ppm; comparison compounds of WO 01/11965
Procedure: as §1
as §2, with “Gherkin” for “Barley”, “(Petit Vert de Paris” for “(Express”, “18-20°” for “12°”, “cotyledon Z11” for “1-leaf”, “stage” for “stage (10 cm tall)”
After 24 hours, the plants are contaminated by depositing drops of an aqueous suspension of Botrytis cinerea spores (150,000 spores per ml) on upper surface of the leaves. The spores are collected from a 15-day-old culture and are suspended in a nutrient solution composed of: • 20 g/L of gelatin • 50 g/L of cane sugar • 2 g/L of NH4NO3 • 1 g/L of KH2PO4
The contaminated gherkin plants are settled for 5/7 days in a climatic room at 15-11° C. (day/night) and at 80% relative humidity.
Grading is carried out 5/7 days after the contamination, in comparison with the control plants. Under these conditions, good (at least 50%) or total protection is observed at a dose of 330 ppm with the following compounds: 38 and 57.

SMILES: Cc1c(O)cccc1C(=O)NCC(C)c1ncc(C(F)(F)F)cc1Cl (stereo not drawn) [Compound 15]
- pest or weed control at 330 ppm (Alternaria brassicae): ≥ 50%

SMILES: CC(CNC(=O)c1ccccc1C(F)(F)F)c1ccc(C(F)(F)F)cn1 (stereo not drawn) [Compound 66]
- pest or weed control at 330 ppm (Alternaria brassicae): ≥ 50%
- pest or weed control at 330 ppm (Pyrenophora teres): ≥ 50%

SMILES: CCCC(CCC)(CNC(=O)c1ccccc1C(F)(F)F)c1ncc(C(F)(F)F)cc1Cl [Compound 35]
- pest or weed control at 330 ppm (Alternaria brassicae): ≥ 50%

SMILES: Cc1ccccc1C(=O)NCC(C)c1ncc(C(F)(F)F)cc1Cl (stereo not drawn) [Compound 7]
- pest or weed control at 330 ppm (Alternaria brassicae): ≥ 50%
- pest or weed control at 330 ppm (Pyrenophora teres): ≥ 50%

SMILES: CCC(CNC(=O)c1ccccc1C(F)F)c1ncc(C(F)(F)F)cc1Cl (stereo not drawn) [Compound 41]
- pest or weed control at 330 ppm (Pyrenophora teres): ≥ 50%

SMILES: CC(CNC(=O)c1cc(Cl)ccc1Cl)c1ncc(C(F)(F)F)cc1Cl (stereo not drawn) [Compound 3]
- pest or weed control at 330 ppm (Alternaria brassicae): ≥ 50%

SMILES: COc1ccccc1C(=O)NCC(C)c1ncc(C(F)(F)F)cc1Cl (stereo not drawn) [Compound 4]
- pest or weed control at 330 ppm (Alternaria brassicae): ≥ 50%

SMILES: Cc1ccc(C(=O)NCC(C)c2ncc(C(F)(F)F)cc2Cl)c(C)c1 (stereo not drawn) [Compound 9]
- pest or weed control at 330 ppm (Alternaria brassicae): ≥ 50%
- pest or weed control at 330 ppm (Pyrenophora teres): ≥ 50%

SMILES: Cc1c(F)cccc1C(=O)NCC(C)c1ncc(C(F)(F)F)cc1Cl (stereo not drawn) [Compound 13]
- pest or weed control at 330 ppm (Alternaria brassicae): ≥ 50%
- pest or weed control at 330 ppm (Pyrenophora teres): ≥ 50%

SMILES: CCC(Cc1ncc(C(F)(F)F)cc1Cl)NC(=O)c1ccccc1C(F)(F)F (stereo not drawn) [Compound 47, N-(1-{[3-chloro-5-(trifluoromethyl)-2-Pyridinyl]methyl}propyl)-2-(trifluoromethyl)benzamide]
- pest or weed control at 330 ppm (Alternaria brassicae): ≥ 50%
- pest or weed control at 330 ppm (Pyrenophora teres): ≥ 50%

SMILES: CCC(CNC(=O)c1ccccc1C)c1ncc(C(F)(F)F)cc1Cl (stereo not drawn) [Compound 23]
- pest or weed control at 330 ppm (Alternaria brassicae): ≥ 50%

SMILES: CC(CNC(=O)c1ccccc1I)c1ccc(C(F)(F)F)c(Cl)n1 (stereo not drawn) [Compound 63]
- pest or weed control at 330 ppm (Alternaria brassicae): ≥ 50%
- pest or weed control at 330 ppm (Pyrenophora teres): ≥ 50%

SMILES: CC(CNC(=O)c1ccccc1C(F)(F)F)c1ncc(C(F)(F)F)cc1Cl (stereo not drawn) [Compound 32]
- pest or weed control at 330 ppm (Alternaria brassicae): ≥ 50%
- pest or weed control at 330 ppm (Pyrenophora teres): ≥ 50%

SMILES: CC(Cc1ccc(C(F)(F)F)c(Cl)n1)NC(=O)c1ccccc1C(F)(F)F (stereo not drawn) [Compound 61]
- pest or weed control at 330 ppm (Pyrenophora teres): ≥ 50%

SMILES: CC(Cc1ncc(C(F)(F)F)cc1Cl)NC(=O)c1ccccc1C(F)(F)F (stereo not drawn) [Compound 38]
- pest or weed control at 330 ppm (Alternaria brassicae): ≥ 50%
- pest or weed control at 330 ppm (Pyrenophora teres): ≥ 50%

SMILES: CNC(=O)C(Cc1ncc(C(F)(F)F)cc1Cl)NC(=O)c1ccc(OC)cc1 (stereo not drawn) [compound 315, N-{1-methylcarbamoyl-2-[3-chloro-5-(trifluoromethyl)-2-pyridinyl]ethyl}-4-methoxybenzamide]
- effectiveness on Botrytis cinerea (Botrytis cinerea): zero

SMILES: CCCC(CNC(=O)c1ccccc1Br)c1ncc(C(F)(F)F)cc1Cl (stereo not drawn) [Compound 43]
- pest or weed control at 330 ppm (Alternaria brassicae): ≥ 50%
- pest or weed control at 330 ppm (Pyrenophora teres): ≥ 50%

SMILES: CCC(CNC(=O)c1cccc(O)c1C)c1ncc(C(F)(F)F)cc1Cl (stereo not drawn) [Compound 30]
- pest or weed control at 330 ppm (Pyrenophora teres): ≥ 50%

SMILES: Cc1ccc(C)c(C(=O)NCC(C)c2ncc(C(F)(F)F)cc2Cl)c1 (stereo not drawn) [Compound 10]
- pest or weed control at 330 ppm (Alternaria brassicae): ≥ 50%
- pest or weed control at 330 ppm (Pyrenophora teres): ≥ 50%

SMILES: CCC(CNC(=O)c1ccccc1C(F)(F)F)c1ncc(C(F)(F)F)cc1Cl (stereo not drawn) [Compound 39, N-{2-[3-chloro-5-(trifluoromethyl)-2-Pyridinyl]butyl}-2-(trifluoromethyl)benzamide]
- pest or weed control at 330 ppm (Pyrenophora teres): ≥ 50%

SMILES: CCC(CNC(=O)c1ccccc1Br)c1ncc(C(F)(F)F)cc1Cl (stereo not drawn) [Compound 40]
- pest or weed control at 330 ppm (Pyrenophora teres): ≥ 50%

SMILES: CC(NC(=O)c1ccccc1I)C(C)c1ncc(C(F)(F)F)cc1Cl (stereo not drawn) [Compound 59]
- pest or weed control at 330 ppm (Alternaria brassicae): ≥ 50%
- pest or weed control at 330 ppm (Pyrenophora teres): ≥ 50%

SMILES: CC(CNC(=O)c1ccccc1C(F)(F)F)c1ccc(C(F)(F)F)c(Cl)n1 (stereo not drawn) [Compound 62]
- pest or weed control at 330 ppm (Alternaria brassicae): ≥ 50%
- pest or weed control at 330 ppm (Pyrenophora teres): ≥ 50%

SMILES: CCCC(CNC(=O)c1ccccc1C(F)F)c1ncc(C(F)(F)F)cc1Cl (stereo not drawn) [Compound 44]
- pest or weed control at 330 ppm (Pyrenophora teres): ≥ 50%

SMILES: CCNC(=O)C(Cc1ncc(C(F)(F)F)cc1Cl)NC(=O)c1cccc([N+](=O)[O-])c1 (stereo not drawn) [compound 307, N-{1-ethylcarbamoyl-2-[3-chloro-5-(trifluoromethyl)-2-pyridinyl]ethyl}-3-nitrobenzamide, reference compound]
- effectiveness on Alternaria brassicae (Alternaria brassicae): poor
- effectiveness on Botrytis cinerea (Botrytis cinerea): zero

SMILES: CCCC(CNC(=O)c1ccccc1C(F)(F)F)c1ncc(C(F)(F)F)cc1Cl (stereo not drawn) [Compound 42]
- pest or weed control at 330 ppm (Alternaria brassicae): ≥ 50%

SMILES: CC(CNC(=O)c1ccccc1I)c1ccc(C(F)(F)F)cn1 (stereo not drawn) [Compound 67]
- pest or weed control at 330 ppm (Alternaria brassicae): ≥ 50%
- pest or weed control at 330 ppm (Pyrenophora teres): ≥ 50%

SMILES: CCNC(=O)C(Cc1ncc(C(F)(F)F)cc1Cl)NC(=O)c1ccccc1Br (stereo not drawn) [compound 310, N-{1-ethylcarbamoyl-2-[3-chloro-5-(trifluoromethyl)-2-pyridinyl]ethyl}-2-bromobenzamide]
- effectiveness on Botrytis cinerea (Botrytis cinerea): zero

SMILES: CCC(CNC(=O)c1ccc(C)cc1C)c1ncc(C(F)(F)F)cc1Cl (stereo not drawn) [Compound 25]
- pest or weed control at 330 ppm (Alternaria brassicae): ≥ 50%

SMILES: CCCC(CCC)(CNC(=O)c1ccccc1I)c1ncc(C(F)(F)F)cc1Cl [Compound 36]
- pest or weed control at 330 ppm (Alternaria brassicae): ≥ 50%

SMILES: Cc1c(Cl)cccc1C(=O)NCC(C)c1ncc(C(F)(F)F)cc1Cl (stereo not drawn) [Compound 12]
- pest or weed control at 330 ppm (Alternaria brassicae): ≥ 50%

SMILES: CNC(=O)C(Cc1ncc(C(F)(F)F)cc1Cl)NC(=O)c1ccccc1 (stereo not drawn) [compound 314, N-{1-methylcarbamoyl-2-[3-chloro-5-(trifluoromethyl)-2-pyridinyl]ethyl}-benzamide]
- effectiveness on Botrytis cinerea (Botrytis cinerea): zero

SMILES: CCC(CNC(=O)c1cccc(OC)c1OC)c1ncc(C(F)(F)F)cc1Cl (stereo not drawn) [Compound 21]
- pest or weed control at 330 ppm (Alternaria brassicae): ≥ 50%

SMILES: CNC(=O)C(Cc1ncc(C(F)(F)F)cc1Cl)NC(=O)c1ccc(-c2ccccc2)cc1 (stereo not drawn) [compound 316, N-{1-methylcarbamoyl-2-[3-chloro-5-(trifluoromethyl)-2-pyridinyl]-ethyl}-4-phenylbenzamide, reference compound]
- effectiveness on Alternaria brassicae (Alternaria brassicae): poor
- effectiveness on Botrytis cinerea (Botrytis cinerea): zero

SMILES: CCNC(=O)C(Cc1ncc(C(F)(F)F)cc1Cl)NC(=O)c1ccccc1 (stereo not drawn) [compound 304, N-{1-ethylcarbamoyl-2-[3-chloro-5-(trifluoromethyl)-2-pyridinyl]-ethyl}-benzamide]
- effectiveness on Botrytis cinerea (Botrytis cinerea): zero

SMILES: CC(NC(=O)c1ccccc1C(F)(F)F)C(C)c1ncc(C(F)(F)F)cc1Cl (stereo not drawn) [Compound 58]
- pest or weed control at 330 ppm (Alternaria brassicae): ≥ 50%
- pest or weed control at 330 ppm (Pyrenophora teres): ≥ 50%

SMILES: Cc1cccc(C(=O)NCC(C)c2ncc(C(F)(F)F)cc2Cl)c1C (stereo not drawn) [Compound 8]
- pest or weed control at 330 ppm (Alternaria brassicae): ≥ 50%
- pest or weed control at 330 ppm (Pyrenophora teres): ≥ 50%

SMILES: CC(CNC(=O)c1ccccc1Br)c1ccc(C(F)(F)F)c(Cl)n1 (stereo not drawn) [Compound 64]
- pest or weed control at 330 ppm (Alternaria brassicae): ≥ 50%
- pest or weed control at 330 ppm (Pyrenophora teres): ≥ 50%

SMILES: CC(C)(CNC(=O)c1ccccc1C(F)(F)F)c1ncc(C(F)(F)F)cc1Cl [Compound 33]
- pest or weed control at 330 ppm (Alternaria brassicae): ≥ 50%
- pest or weed control at 330 ppm (Pyrenophora teres): ≥ 50%

SMILES: CC(CNC(=O)c1cccc(Cl)c1F)c1ncc(C(F)(F)F)cc1Cl (stereo not drawn) [Compound 11]
- pest or weed control at 330 ppm (Alternaria brassicae): ≥ 50%

SMILES: CCNC(=O)C(Cc1ncc(C(F)(F)F)cc1Cl)NC(=O)c1ccc(Cl)cc1 (stereo not drawn) [compound 306, N-{1-ethylcarbamoyl-2-[3-chloro-5-(trifluoromethyl)-2-pyridinyl]ethyl}-4-chlorobenzamide]
- effectiveness on Botrytis cinerea (Botrytis cinerea): zero
